Test [1] addresses ROCK1 (Homo sapiens, UniProt Q13464). Briefly: ROCK1 kinase enzymatic activity (HTRF, STK2 substrate). The test is classed as biochemical. The note with it: ROCK1 kinase reaction 20 minutes at room temperature. The text has this: (§1) The kinase activity data was expressed by comparing the kinase activity of the test compound and that of the blank group (containing only DMSO), and the IC50 value was obtained by curve fitting using Prism software (GraphPad7.0).

Test [2] addresses ROCK2 (Homo sapiens, UniProt O75116). Briefly: ROCK2 kinase enzymatic activity (HTRF, STK2 substrate). Conditions: ROCK2 kinase reaction 30 minutes at room temperature. It is filed as biochemical.
Description: as §1

Test [3] has as its system phosphorylation of myosin light chain T18/S19. Briefly: In Cell Western for phosphorylation of myosin light chain in A7r5 cells. It is filed as cell-based, rat. Conditions: Rattus norvegicus, A7R5, 1 h. The text has this: The rat smooth muscle cell line A7r5 was used, and the A7r5 cell culture conditions were DMEM containing 10% FBS. Phspho-MLC-T18/S19 specific antibody and a second detection antibody were used to detect the phosphorylation level of myosin light chain by In Cell Western. Cells treated with positive compounds were used as positive controls, while the group without compounds but with compound solvents was used as negative controls. DRAQ5 stained cell nuclei were used as internal references. GraphPad Prism 7.0 software was used, and fitting was carried out by using a non-linear regression curve with varying slopes to determine the absolute IC50 value.
On the first day, A7r5 cells were resuspended in serum-free medium and seeded into 384 wells of PDL coated transparent black plates at a density of 5000 cells per well. Serum starvation culture was performed for 4 hours, and the cells were incubated with the compound in serum-free medium for 1 hour. 50 µL of 8% PFA (polyformaldehyde) was added to each well and fixed at room temperature for 1 hour. The liquid in the wells was discard and 90 µL of ice methanol was added to each well to permeabilize the cells at 4 °C for 1 hour. Then, PBST (0.1% Tween20-PBS) was added using an automatic separator to wash three times. After patting the plate for drying, 50 µL blocking solution was added to each well for sealing at room temperature for 1 hour. The phspho-MLC-T18/S19 specific antibody was diluted with the blocking solution at a ratio of 1:200. After adding 20 µL to each well, incubation was carried out overnight at 4 °C with a sealed film.
On the second day, the liquid in the wells was discarded and PBST was added using an automatic separator to wash the plate 5 times. After patting the plate for drying, the second detection antibody was diluted with blocking solution at a ratio of 1:800 and DRAQ5 at a ratio of 1:1000. After adding 20 µL to each well, incubation was carried out at room temperature for 1 hour. Then, the liquid in the wells was discarded and PBST was added using an automatic separator to wash the plate 3 times, followed by adding ddH2O to wash the plate 3 times. After patting the plate for drying, it was scaned using a LICOR Odyssey near-infrared imaging scanner.

The test system of test [4] is Norwegian rat glaucoma model induced by hypertonic saline solution. Briefly: Norwegian rat glaucoma model induced by hypertonic saline solution (intraocular pressure). The test is classed as in vivo. Conditions: 0.02% eye drops once a day, one drop; compared with model control group; 0 to 24 hours after administration. The text has this: Experimental method: after animal anesthesia, the lateral canthus of the right eye was incised, and a polypropylene ring was placed at the equator of the eyeball, with the notch of the ring located in the upper quadrant of the eyeball, leaving only one scleral surface vein above. […] After injection, the polypropylene ring was removed and antibiotic eye ointment was applied to the operated eye.
After modeling, a rebound tonometer was used continuously to measure the intraocular pressure of both eyes, once every 3 days, and the average of 6 measurements was took each time and recorded; After the intraocular pressure had been stabilized (about 20 days later), the subjects were randomly divided into three groups based on the most recent measurement of intraocular pressure and body weight: sham surgery group, model control group, and test drug group (0.02% Example 29) group, with 5 animals in each group. After grouping, eye drops were administered once a day, with one drop per time. During the administration period, dynamic intraocular pressure was measured once a week (detecting the intraocular pressure change curve from 0 to 24 hours after administration) until the end of the experiment.

Where only a bound is given, the exact number is not on record here.

Chain of ROCK2 (O75116 whole entry): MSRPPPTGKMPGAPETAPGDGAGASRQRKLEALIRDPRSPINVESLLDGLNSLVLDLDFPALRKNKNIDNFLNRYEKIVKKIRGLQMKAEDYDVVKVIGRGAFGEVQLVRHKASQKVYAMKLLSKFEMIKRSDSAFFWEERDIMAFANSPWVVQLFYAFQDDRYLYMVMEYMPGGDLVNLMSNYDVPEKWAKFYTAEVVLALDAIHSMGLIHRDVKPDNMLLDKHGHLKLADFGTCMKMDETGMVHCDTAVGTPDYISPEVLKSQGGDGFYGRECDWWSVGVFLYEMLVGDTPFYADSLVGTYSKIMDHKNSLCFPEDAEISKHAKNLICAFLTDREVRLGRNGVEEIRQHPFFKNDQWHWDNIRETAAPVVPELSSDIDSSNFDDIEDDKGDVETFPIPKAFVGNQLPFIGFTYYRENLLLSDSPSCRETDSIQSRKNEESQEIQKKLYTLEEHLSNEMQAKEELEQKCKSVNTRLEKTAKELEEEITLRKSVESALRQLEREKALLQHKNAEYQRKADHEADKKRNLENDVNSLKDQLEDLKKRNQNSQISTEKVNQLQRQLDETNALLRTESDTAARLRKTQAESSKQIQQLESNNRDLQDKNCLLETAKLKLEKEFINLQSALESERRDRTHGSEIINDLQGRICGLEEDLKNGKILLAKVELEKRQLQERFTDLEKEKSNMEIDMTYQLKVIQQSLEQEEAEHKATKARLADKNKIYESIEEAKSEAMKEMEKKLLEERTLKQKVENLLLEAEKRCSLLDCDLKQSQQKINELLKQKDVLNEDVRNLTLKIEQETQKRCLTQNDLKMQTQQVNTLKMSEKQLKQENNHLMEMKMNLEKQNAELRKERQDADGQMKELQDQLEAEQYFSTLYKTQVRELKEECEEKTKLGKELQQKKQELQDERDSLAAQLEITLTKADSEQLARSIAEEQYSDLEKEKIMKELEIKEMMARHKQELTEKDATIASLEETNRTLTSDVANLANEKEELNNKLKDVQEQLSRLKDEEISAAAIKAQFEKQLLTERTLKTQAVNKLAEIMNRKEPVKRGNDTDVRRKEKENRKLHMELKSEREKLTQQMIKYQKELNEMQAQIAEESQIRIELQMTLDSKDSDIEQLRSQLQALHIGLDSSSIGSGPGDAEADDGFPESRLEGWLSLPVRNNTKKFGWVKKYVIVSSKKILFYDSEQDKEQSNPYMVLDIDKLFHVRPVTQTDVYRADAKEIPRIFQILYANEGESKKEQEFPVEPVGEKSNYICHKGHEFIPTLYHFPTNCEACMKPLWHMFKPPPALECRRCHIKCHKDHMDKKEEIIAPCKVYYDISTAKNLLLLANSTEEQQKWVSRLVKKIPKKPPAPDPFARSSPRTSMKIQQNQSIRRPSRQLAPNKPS
Chain of ROCK1 (Q13464 whole entry): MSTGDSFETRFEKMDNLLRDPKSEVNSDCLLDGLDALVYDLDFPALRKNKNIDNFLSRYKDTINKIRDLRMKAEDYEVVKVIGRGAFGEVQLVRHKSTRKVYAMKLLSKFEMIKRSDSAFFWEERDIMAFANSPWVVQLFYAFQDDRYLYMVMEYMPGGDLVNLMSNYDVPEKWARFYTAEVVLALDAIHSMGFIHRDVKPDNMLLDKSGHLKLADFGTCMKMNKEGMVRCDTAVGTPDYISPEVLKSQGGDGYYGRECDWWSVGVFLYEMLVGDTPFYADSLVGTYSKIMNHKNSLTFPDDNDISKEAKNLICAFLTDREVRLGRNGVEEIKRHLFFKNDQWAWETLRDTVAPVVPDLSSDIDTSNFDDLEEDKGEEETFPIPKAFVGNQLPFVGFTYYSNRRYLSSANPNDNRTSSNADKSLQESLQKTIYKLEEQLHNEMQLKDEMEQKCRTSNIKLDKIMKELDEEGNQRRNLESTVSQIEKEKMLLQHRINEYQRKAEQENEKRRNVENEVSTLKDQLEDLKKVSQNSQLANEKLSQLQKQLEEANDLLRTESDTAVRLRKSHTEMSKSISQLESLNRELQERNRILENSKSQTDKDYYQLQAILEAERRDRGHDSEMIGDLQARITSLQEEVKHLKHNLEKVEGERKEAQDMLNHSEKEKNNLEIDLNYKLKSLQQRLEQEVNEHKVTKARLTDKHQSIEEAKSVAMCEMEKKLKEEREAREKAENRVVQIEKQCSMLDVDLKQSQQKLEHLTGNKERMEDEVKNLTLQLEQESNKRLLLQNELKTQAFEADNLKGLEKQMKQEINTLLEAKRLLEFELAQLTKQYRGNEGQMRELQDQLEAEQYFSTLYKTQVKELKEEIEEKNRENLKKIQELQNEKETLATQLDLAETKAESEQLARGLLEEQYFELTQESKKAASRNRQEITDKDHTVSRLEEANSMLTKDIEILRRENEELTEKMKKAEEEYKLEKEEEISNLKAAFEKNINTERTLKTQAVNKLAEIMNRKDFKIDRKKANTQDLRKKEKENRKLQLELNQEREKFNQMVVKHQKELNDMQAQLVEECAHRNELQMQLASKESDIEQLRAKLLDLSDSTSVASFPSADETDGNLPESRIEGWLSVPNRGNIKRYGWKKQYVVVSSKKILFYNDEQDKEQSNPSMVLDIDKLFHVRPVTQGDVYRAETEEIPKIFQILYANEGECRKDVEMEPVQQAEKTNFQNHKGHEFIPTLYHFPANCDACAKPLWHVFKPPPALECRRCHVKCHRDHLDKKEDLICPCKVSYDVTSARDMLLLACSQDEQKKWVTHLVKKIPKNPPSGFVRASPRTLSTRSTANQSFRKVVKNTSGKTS

As to `N#CC[C@H](C1CCCCC1)n1cc(-c2ncnc3[nH]ccc23)c(N)n1` [Example 29, (R)-3-(3-amino-4-(7H-pyrrolo[2,3-d]pyrimidin-4-yl)-1H-pyrazol-1-yl)-3-cyclohexylpropionitrile], the results for the IC50 in test [1], in test [2] and in test [3] were under 5 nM, under 5 nM and 106 nM, respectively. The intraocular pressure entry in test [4] is on record as “significantly decreased”.
Regarding `N#CCC(C1CCC1)n1cc(-c2ncnc3[nH]ccc23)c(N)n1` (stereo not shown) [Example 13, 3-(3-amino-4-(7H-pyrrolo[2,3-d]pyrimidin-4-yl)-1H-pyrazol-1-yl)-3-cyclobutylpropionitrile], the IC50 in test [1] is under 5 nM; in test [2], under 5 nM; in test [3], 122 nM.
Regarding `N#CCC1(n2cc(-c3ncnc4[nH]ccc34)c(N)n2)CC(F)(F)C1` [Example 6, 2-(1-(3-amino-4-(7H-pyrrolo[2,3-d]pyrimidin-4-yl)-1H-pyrazol-1-yl)-3,3-difluorocyclobutyl)acetonitrile], the IC50 in test [1] is under 5 nM; in test [2], under 5 nM; in test [3], 102 nM.
In the case of `N#CC[C@]1(n2cc(-c3ncnc4[nH]ccc34)c(N)n2)C[C@H](C#N)C1` [Example 10, (1r,3r)-3-(3-amino-4-(7H-pyrrolo[2,3-d]pyrimidin-4-yl)-1H-pyrazol-1-yl)-3-(cyanomethyl)cyclobutane-1-carbonitrile], the IC50 was under 2 nM in test [1], under 1 nM in test [2] and 48 nM in test [3].
On to `N#CC[C@@H](C1CC1)n1cc(-c2ncnc3[nH]ccc23)c(N)n1` [Example 26, (S)-3-(3-amino-4-(7H-pyrrolo[2,3-d]pyrimidin-4-yl)-1H-pyrazol-1-yl)-3-cyclopropylpropionitrile], for which the IC50 in test [1] was under 5 nM; in test [2], under 2 nM; in test [3], 88 nM.
For `N#CCC(C1CCCCC1)n1cc(-c2ncnc3[nH]ccc23)c(N)n1` (stereo not shown) [Example 14, 3-(3-amino-4-(7H-pyrrolo[2,3-d]pyrimidin-4-yl)-1H-pyrazol-1-yl)-3-cyclohexylpropionitrile], in that order: under 5 nM, under 5 nM and 175 nM.
For the molecule `N#CC[C@@H](C1CCCCC1)n1cc(-c2ncnc3[nH]ccc23)c(N)n1` [Example 30, (S)-3-(3-amino-4-(7H-pyrrolo[2,3-d]pyrimidin-4-yl)-1H-pyrazol-1-yl)-3-cyclohexylpropionitrile], the IC50 is under 5 nM in test [1], under 5 nM in test [2] and 182 nM in test [3].
For the molecule `N#CC[C@H](C1CC1)n1cc(-c2ncnc3[nH]ccc23)c(N)n1` [Example 25, (R)-3-(3-amino-4-(7H-pyrrolo[2,3-d]pyrimidin-4-yl)-1H-pyrazol-1-yl)-3-cyclopropylpropionitrile], the IC50 in test [1] is under 5 nM; in test [2] it was under 2 nM; in test [3] it was 75 nM.
The like results for `N#CC[C@]1(n2cc(-c3ncnc4[nH]ccc34)c(N)n2)C[C@@H](C#N)C1` [Example 11, (1s,3s)-3-(3-amino-4-(7H-pyrrolo[2,3-d]pyrimidin-4-yl)-1H-pyrazol-1-yl)-3-(cyanomethyl)cyclobutane-1-carbonitrile] were, in that order, under 10 nM, under 10 nM and 466 nM.
On to `N#CCC1(n2cc(-c3ncnc4[nH]ccc34)c(N)n2)CCS(=O)(=O)CC1` [Example 1, 2-(4-(3-amino-4-(7H-pyrrolo[2,3-d]pyrimidin-4-yl)-1H-pyrazol-1-yl)-1,1-dioxidotetrahydro-2H-thiopyran-4-yl)acetonitrile], for which the IC50 was under 2 nM in test [1], under 1 nM in test [2] and 92 nM in test [3].
The like results for `CC1CC(C(CC#N)n2cc(-c3ncnc4[nH]ccc34)c(N)n2)C1` (stereo not shown) [Example 16, 3-(3-amino-4-(7H-pyrrolo[2,3-d]pyrimidin-4-yl)-1H-pyrazol-1-yl)-3-(3-methylcyclobutyl)propanitrile] were, in that order, under 5 nM, under 5 nM and 284 nM.
